Reference: PubChem BioAssay AID1963973 (Molecular Pharmacology Branch, DTP, NCI, 2024)
Values joined by “and” are separate entries in the source; they are usually repeats but may differ in a detail not shown here. Identical values can stand only once.

System: 883617-216-R-J1-PDC tumor spheroids, viability
Assay: Anticancer human tumor 883617-216-R-J1-PDC patient-derived bladder carcinoma cell line growth inhibition [PI3K]
Conditions: spheroids with HUVEC and MSC; for viability, T/C: stronger effect = lower value
Description: Combinatorial screen of targeted agents with the PI3K inhibitors inavolisib, alpelisib, duvelisib, and copanlisib in multi-cell type tumor spheroids
A high-throughput screen of multi-cell type tumor spheroids was designed to identify active combinations of targeted small molecules and PI3K pathway inhibitors. Complex spheroids include a stromal component modeled by human endothelial cells (HUVEC) and fibroblasts modeled by human mesenchymal stem cells (MSCs). The concentration ranges selected for each drug and investigational agent were based upon clinically achievable concentrations if the clinical Cmax of the agent was known.
Compounds. The drugs and investigational agents: inavolisib (NSC800729), alpelisib (NSC765974), duvelisib (NSC772469), copanlisib (NSC816437), ipatasertib (NSC767898), afuresertib (NSC778305), talazoparib (NSC767125), sapanisertib (NSC764658), selumetinib (NSC741078), tovorafenib (DAY101, NSC766906), vemurafenib (NSC761431), ravoxertinib (NSC781343), sotorasib (NSC818433), MRTX1133 (NSC 836407), abemaciclib (NSC 768073), palbociclib (NSC758247), venetoclax (NSC 766270), SY5609 (NSC837396), enzalutamide (NSC755605), and darolutamide (NSC825331), were obtained from the National Cancer Institute (NCI) Developmental Therapeutics Program Chemical Repository. The FDA-approved anticancer drug set is available from the NCI Developmental Therapeutics Program. […] The stock solutions were prepared in dimethyl sulfoxide (DMSO, Sigma-Aldrich, St. Louis, MO, cat. D2650) at 800-fold the tested concentration and stored at -70 degrees C prior to their use. All drugs and investigational agents were tested over a range starting from a high concentration at or near the clinical Cmax and decreasing in half-log increments. If the clinical Cmax for an agent had not been determined, the highest concentration tested was 10 microM.
Cell Culture. All cells were maintained in an incubator at 37 degrees C and 5% CO2 with 95% humidity. The PDC lines were cultured according to standard operating procedures established by the NCI PDMR (https://pdmr.cancer.gov/sops/default.htm). All PDCs were thawed and cultured in Matrigel-coated flasks prepared with a working solution of 1X Ham's F-12 nutrient mix, without supplementation (Invitrogen, Waltham, MA, cat. 11765054), 100 U/mL penicillin-streptomycin (Invitrogen, cat. 15140122), and 2.5% Matrigel (Corning Inc., Corning, NY, cat. 354248) for the first three passages. The 354836-022-R-J1-PDC, 475296-252-R-J1-PDC, and 997726-040-R-J2-PDC lines were cultured in 6A media, which includes advanced DMEM/F-12 (Thermo Fisher Scientific, cat. 12634028), 10 mM HEPES (Thermo Fisher Scientific, cat. 15630080), 1X GlutaMAX supplement (Thermo Fisher Scientific, cat. 35050061), 0.1 mg/mL primocin (InvivoGen, San Diego, CA, cat. ant-pm-2), 10% defined fetal bovine serum, heat inactivated (HyClone Laboratories Inc., Logan, UT, cat. SH30070.03HI), 50% L-WRN conditioned media (ATCC, cat. CRL-3276), 1.25 mM N-Acetyl-L-cysteine (Sigma-Aldrich, cat. A9165), 10 mM nicotinamide (Sigma-Aldrich, cat. N0636), 1X B-27 supplement (Thermo Fisher Scientific, cat. 17504044), 1X N-2 supplement (Thermo Fisher Scientific, cat. 17502048), and 10 microM Y-27632 dihydrochloride (Tocris Bioscience, Bristol, United Kingdom, cat. 1254). The 624824-186-R-J2-PDC line was cultured in 6C/Colon 1B media, which includes all 6A media components plus 50 ng/mL human EGF recombinant protein (Thermo Fisher Scientific, cat. PHG0311). […]
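Also: spheroids exposed to agents for 7 days before the viability read.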

Q: `C#Cc1c(F)ccc2cc(O)cc(-c3ncc4c(N5CC6CCC(C5)N6)nc(OCC56CCCN5CC(F)C6)nc4c3F)c12` (stereo unspecified) was tested. Which viability, T/C (compound 0.0316 µM) did it give?
A: 99.5% [middle of 4 runs]

Q: What about the viability, T/C (compound 0.1 µM) of the same compound?
A: 95.7% [middle of 4 runs]

Q: And the viability, T/C (compound 0.316 µM)?
A: 100% [middle of 4 runs]

Q: And the viability, T/C (compound 1 µM)?
A: 88% [middle of 4 runs]

Q: And the viability, T/C (compound 3.16 µM)?
A: 80.5% (2×) and 102% and 88.1%

Q: What about the viability, T/C (compound 10 µM) of the same compound?
A: 65.8% [middle of 4 runs]

Q: What about the IC50 (curve of compound) of the same compound?
A: > 10000 nM

Q: For `CC(Cn1ccc(-c2ccc(C#N)c(Cl)c2)n1)NC(=O)c1cc(C(C)O)[nH]n1` (stereo unspecified), which viability, T/C (compound 0.1 µM) is on record?
A: 90.8% [middle of 4 runs]

Q: What about the viability, T/C (compound 0.316 µM) of the same compound?
A: 104% [middle of 4 runs]

Q: And the viability, T/C (compound 1 µM)?
A: 95.5% [middle of 4 runs]

Q: And the viability, T/C (compound 3.16 µM)?
A: 110% [middle of 4 runs]

Q: And the viability, T/C (compound 10 µM)?
A: 102% [middle of 4 runs]

Q: What about the IC50 (curve of compound) of the same compound?
A: > 10000 nM

Q: Which viability, T/C (compound 0.1 µM) does the source give for `C[C@@H](NC(=O)c1ncnc(N)c1Cl)c1ncc(C(=O)Nc2cc(C(F)(F)F)c(Cl)cn2)s1` here?
A: 96.9% [middle of 4 runs]

Q: And the viability, T/C (compound 0.316 µM)?
A: 88.3% [middle of 4 runs]

Q: What about the viability, T/C (compound 1 µM) of the same compound?
A: 96.5% [middle of 4 runs]

Q: And the viability, T/C (compound 3.16 µM)?
A: 93.2% (2×) and 95.3% and 100%

Q: What about the viability, T/C (compound 10 µM) of the same compound?
A: 73% [middle of 4 runs]

Q: And the IC50 (curve of compound)?
A: > 10000 nM

Q: Which IC50 (curve of first compound, second compound 0.00316 µM) does the source give for `Cn1cnc2c(F)c(Nc3ccc(Br)cc3Cl)c(C(=O)NOCCO)cc21` + CC(Nc1ccc2c(c1)OCCn1cc(N3C(=O)OCC3C(F)F)nc1-2)C(N)=O here?
A: 40.6 nM

Q: And the IC50 (curve of first compound, second compound 0.01 µM)?
A: 34.9 nM

Q: And the IC50 (curve of first compound, second compound 0.0316 µM)?
A: 10.3 nM

Q: And the IC50 (curve of first compound, second compound 0.1 µM)?
A: 13.4 nM

Q: What about the IC50 (curve of first compound, second compound 0.316 µM) of the same compound?
A: < 9.49 nM

Q: What about the IC50 (curve of first compound, second compound 1 µM) of the same compound?
A: < 9.49 nM

Q: What about the viability, T/C (second compound 0.00316 µM, first compound 0.00949 µM) of the same compound?
A: 64.5%

Q: And the viability, T/C (second compound 0.00316 µM, first compound 0.03 µM)?
A: 57.4%

Q: And the viability, T/C (second compound 0.00316 µM, first compound 0.0949 µM)?
A: 35.1%

Q: And the viability, T/C (second compound 0.00316 µM, first compound 0.3 µM)?
A: 35.3%

Q: What about the viability, T/C (second compound 0.00316 µM, first compound 0.949 µM) of the same compound?
A: 26.5%

Q: And the viability, T/C (second compound 0.00316 µM, first compound 3 µM)?
A: 19.6%

Q: What about the viability, T/C (second compound 0.01 µM, first compound 0.00949 µM) of the same compound?
A: 62.9%

Q: What about the viability, T/C (second compound 0.01 µM, first compound 0.03 µM) of the same compound?
A: 47.3%

Q: And the viability, T/C (second compound 0.01 µM, first compound 0.0949 µM)?
A: 45.9%

Q: What about the viability, T/C (second compound 0.01 µM, first compound 0.3 µM) of the same compound?
A: 30.6%

Q: And the viability, T/C (second compound 0.01 µM, first compound 0.949 µM)?
A: 26.8%

Q: What about the viability, T/C (second compound 0.01 µM, first compound 3 µM) of the same compound?
A: 19.4%

Q: And the viability, T/C (second compound 0.0316 µM, first compound 0.00949 µM)?
A: 51.8%

Q: What about the viability, T/C (second compound 0.0316 µM, first compound 0.03 µM) of the same compound?
A: 36%

Q: What about the viability, T/C (second compound 0.0316 µM, first compound 0.0949 µM) of the same compound?
A: 25%

Q: And the viability, T/C (second compound 0.0316 µM, first compound 0.3 µM)?
A: 25.2%

Q: And the viability, T/C (second compound 0.0316 µM, first compound 0.949 µM)?
A: 20.1%

Q: And the viability, T/C (second compound 0.0316 µM, first compound 3 µM)?
A: 14.2%

Q: And the viability, T/C (second compound 0.1 µM, first compound 0.00949 µM)?
A: 61.2%

Q: And the viability, T/C (second compound 0.1 µM, first compound 0.03 µM)?
A: 21.9%

Q: And the viability, T/C (second compound 0.1 µM, first compound 0.0949 µM)?
A: 23.4%

Q: And the viability, T/C (second compound 0.1 µM, first compound 0.3 µM)?
A: 18%

Q: What about the viability, T/C (second compound 0.1 µM, first compound 0.949 µM) of the same compound?
A: 16.7%

Q: And the viability, T/C (second compound 0.1 µM, first compound 3 µM)?
A: 7.35%

Q: What about the viability, T/C (second compound 0.316 µM, first compound 0.00949 µM) of the same compound?
A: 22.1%

Q: What about the viability, T/C (second compound 0.316 µM, first compound 0.03 µM) of the same compound?
A: 16.2%

Q: What about the viability, T/C (second compound 0.316 µM, first compound 0.0949 µM) of the same compound?
A: 10.5%

Q: And the viability, T/C (second compound 0.316 µM, first compound 0.3 µM)?
A: 11.5%

Q: What about the viability, T/C (second compound 0.316 µM, first compound 0.949 µM) of the same compound?
A: 8.13%

Q: What about the viability, T/C (second compound 0.316 µM, first compound 3 µM) of the same compound?
A: 4.48%

Q: What about the viability, T/C (second compound 1 µM, first compound 0.00949 µM) of the same compound?
A: 13.3%

Q: What about the viability, T/C (second compound 1 µM, first compound 0.03 µM) of the same compound?
A: 9.92%

Q: What about the viability, T/C (second compound 1 µM, first compound 0.0949 µM) of the same compound?
A: 7.16%

Q: What about the viability, T/C (second compound 1 µM, first compound 0.3 µM) of the same compound?
A: 7.46%

Q: And the viability, T/C (second compound 1 µM, first compound 0.949 µM)?
A: 6.08%

Q: What about the viability, T/C (second compound 1 µM, first compound 3 µM) of the same compound?
A: 3.09%
